What was measured:
biosensor cells = experiment: Toxicity to biosensor cells under seeding assay conditions; assay type: cell-based; settings: under the assayed conditions
tau fibrils = tau fibrils (Homo sapiens, UniProt P10636); experiment: Table A function: disaggregators of amyloid fibrils (tau)
α-synuclein fibrils = α-synuclein fibrils (Homo sapiens, UniProt P37840); experiment: Table A function: disaggregators of amyloid fibrils (alpha-synuclein)

Sequence of tau fibrils (P10636 1-441 isoform P10636-8): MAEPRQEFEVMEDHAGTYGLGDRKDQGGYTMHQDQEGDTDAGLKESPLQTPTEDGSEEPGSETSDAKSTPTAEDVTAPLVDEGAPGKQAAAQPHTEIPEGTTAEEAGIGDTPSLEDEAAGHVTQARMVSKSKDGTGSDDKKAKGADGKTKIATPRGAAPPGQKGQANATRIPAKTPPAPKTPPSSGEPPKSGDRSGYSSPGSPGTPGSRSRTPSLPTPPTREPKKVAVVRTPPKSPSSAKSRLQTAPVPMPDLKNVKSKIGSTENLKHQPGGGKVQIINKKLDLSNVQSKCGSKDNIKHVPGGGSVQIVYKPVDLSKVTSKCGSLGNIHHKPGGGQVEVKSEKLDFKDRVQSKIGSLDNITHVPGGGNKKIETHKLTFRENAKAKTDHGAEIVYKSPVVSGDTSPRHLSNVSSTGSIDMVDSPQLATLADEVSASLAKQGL

Function (tau fibrils) | SMILES | further results
 | Oc1cccc(-c2c3nc(c(-c4cccc(O)c4)c4ccc([nH]4)c(-c4cccc(O)c4)c4nc(c(-c5cccc(O)c5)c5ccc2[nH]5)CC4)C=C3)c1 [FDA-A4, Temoporfin] | toxicity to biosensor cells (biosensor cells): toxic
Dissociate tau fibrils | COc1cccc2cc(C(=O)Nc3cccc(-c4cn5ccccc5n4)c3)c(=O)oc12 [compound 1541, N-(3-(imidazo[1,2-a]pyridin-2-yl)phenyl)-8-methoxy-2-oxo-2H-chromene-3-carboxamide] | 
Dissociate tau fibrils | O=C1C(Cl)=C(Nc2ccc(Cl)cc2)C(=O)c2ccccc21 [MOL18, 2-chloro-3-[(4-chlorophenyl)amino]naphthalene-1,4-dione] | 
 | Cc1cc(NC(=O)Cc2ccccc2Cl)ccc1Br [MOL06, N-(4-bromo-3-methylphenyl)-2-(2-chlorophenyl)acetamide] | Function (α-synuclein fibrils): Dissociate α- synuclein fibrils

From patent publication US20260021092A1, “STRUCTURE-BASED DESIGN OF A NOVEL CLASS OF DRUGS FOR NEURODEGENERATIVE DISEASE” (The Regents of the University of California, priority 2022, published 2026)
